Measured values: ChEMBL document CHEMBL4043229, “gem-Dithioacetylated indole derivatives as novel antileishmanial agents” (Bioorg Med Chem Lett, 2017)
≈ marks a conversion by molar mass, not a printed value. Calls of active or inactive are those of the source. The calls are words filed in the database; no cut-off is given here.

Key:
Leishmania donovani [1] = assay: Anti-leishmanial activity against promastigote stage of Leishmania donovani MHOM/IN/Dd8 harboring luciferase gene at 12.5 ug/ml after 72 hrs by luminescence assay relative to control; type: functional; conditions: for inhibition at 12.5 µg/mL: MHOM/IN/Dd8, 72 h
Leishmania donovani [2] = assay: Anti-leishmanial activity against intracellular amastigote stage of Leishmania donovani harboring luciferase gene infected in mouse J774A1 cells at 12.5 ug/ml after 72 hrs by luminescence assay relative to control; type: functional; conditions: for inhibition at 12.5 µg/mL: J774.A1, 72 h
[3] = Cytotoxicity against mouse J774A1 cells after 72 hrs by MTT assay; type: cell-based, J774.A1

Row | Structure (SMILES) | inhibition at 12.5 µg/mL (Leishmania donovani [1]) | inhibition (Leishmania donovani [2]) | inhibition (Leishmania donovani [1]) | inhibition at 12.5 µg/mL (Leishmania donovani [2]) | CC50 at 72 h [3]
1 | CC(=O)SC(SC(C)=O)c1cn(C)c2ccccc12 | 31% |  |  |  | 
2 | N#Cc1ccc(OCCCCCn2cc(C=O)c3ccccc32)cc1 |  | inactive | inactive |  | 
3 | CC(=O)SC(SC(C)=O)c1cn(CCCCCN2CCN(c3ccccc3)CC2)c2ccccc12 | 60.1% |  |  | 86.8% | 13.8 µg/mL (≈ 27.1 µM)
4 | CC(=O)SC(SC(C)=O)c1cn(CCCCOc2ccc(C#N)cc2)c2ccccc12 | 90.9% |  |  | 97.8% | > 100 µg/mL
5 | CC(=O)SC(SC(C)=O)c1cn(CCCCCCOc2ccc(C#N)cc2)c2ccccc12 | 91.6% |  |  | 40.2% | > 100 µg/mL
6 | CCCCn1cc(C(SC(C)=O)SC(C)=O)c2ccccc21 | 74% |  |  |  | 
7 | CC(=O)SC(SC(C)=O)c1cn(CCCCCOc2ccc(C#N)cc2)c2ccccc12 | 96% |  |  | 99.8% | > 100 µg/mL
